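Briefly, cells in 96-well plates were exposed to five compound concentrations for 48 h, and endpoints were estimated by linear interpolation. GI50 is the concentration that inhibits growth by half. TGI denotes the concentration required for complete inhibition of growth.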
Tests used:
Assay in all cases: NCI-60 cell line screen, 48 h
[1] = test system: CAKI-1 renal
[2] = test system: COLO 205 colon
[3] = test system: MOLT-4 leukemia
[4] = test system: NCI-H522 lung
[5] = test system: PC-3 prostate
[6] = test system: SF-539 CNS
[7] = test system: SK-MEL-5 melanoma
[8] = test system: SNB-19 CNS
[9] = test system: UO-31 renal
[10] = test system: T-47D breast

| SMILES | GI50 [1] [µM] | TGI [1] | GI50 [2] [µM] | TGI [2] [µM] | GI50 [3] [µM] | TGI [3] [µM] | GI50 [4] [µM] | TGI [4] | GI50 [5] [µM] | TGI [5] [µM] | GI50 [6] [µM] | TGI [6] [µM] | GI50 [7] [µM] | TGI [7] [µM] | GI50 [8] [µM] | TGI [8] [µM] | GI50 [9] [µM] | TGI [9] [µM] | TGI [10] [µM] |
| --- | --- | --- | --- | --- | --- | --- | --- | --- | --- | --- | --- | --- | --- | --- | --- | --- | --- | --- | --- |
| C=C1C(=O)O[C@H]2[C@H]1CC/C(Cn1cc(-c3cccc(Cl)c3)nn1)=C\CC[C@@]1(C)O[C@@H]21 | 0.869 | 2.13 µM | 0.417 | 1.69 | 0.31 | 1.25 | 0.291 | 1.09 µM | 1.98 | 3.77 | 0.258 | 0.791 | 1.7 | 3.08 | 2.4 | 6.45 | 1.08 | 2.31 |  |
| O=C1C2c3[nH]c4ccccc4c3C3CCCCCC3C2C(=O)N1c1ccccc1 (stereo not given) |  | > 100 µM |  | > 100 |  | 47.7 |  | > 100 µM |  |  |  | > 52 |  | > 100 |  | > 74.1 |  | 99.4 |  |
| COc1cc(C2C(C(=O)Nc3ccc([N+](=O)[O-])cc3)=C(C)NC(C)=C2C(=O)Nc2ccc([N+](=O)[O-])cc2)ccc1O |  | > 86.6 µM |  | 30.9 |  | 75.4 |  | 39.7 µM |  |  |  | 41.1 |  | > 100 |  | > 73.9 |  | 46.3 |  |
| CC(=O)[CH-]C(=O)c1ccccc1.CC(=O)[CH-]C(=O)c1ccccc1.CC(C)CCC[C@H](C)C1CCC2[C@@H]3CC=C4C[C@@H]([O-])CC[C@]4(C)C3CC[C@@]21C.CC(C)CCC[C@H](C)C1CCC2[C@@H]3CC=C4C[C@@H]([O-])CC[C@]4(C)C3CC[C@@]21C.Cl.[Ti+4] (stereo not given in full) | > 25 | > 25 µM | > 25 | > 25 | > 25 | > 25 | > 25 | > 25 µM |  |  | > 25 | > 25 | > 25 | > 25 | > 25 | > 25 | > 25 | > 25 |  |
| COc1cc(-c2ccc(NC(=O)SCCC(=O)O)cc2OC)ccc1NC(=O)SCCC(=O)O |  | > 100 µM |  | > 100 |  | > 100 |  | > 100 µM |  |  |  | > 100 |  | > 100 |  | > 100 |  | > 100 |  |
| COc1cc(/C=C/c2ccc(Br)cc2)cc(OC)c1OC |  | > 87 µM |  | 25.7 |  | 15.6 |  | 46.1 µM |  |  |  | 31.9 |  | 20.4 |  | > 100 |  | 80.1 |  |
| O=C(CCl)Nc1cc(Cl)c(Cl)cc1Cl |  | 4.88 µM |  | 3.35 |  | > 10 |  | 2.02 µM |  | 3.29 |  | 3.04 |  | 3.17 |  | 4.43 |  |  | 5.59 |
| COC1[C@H](NC(=O)OC(C)(C)C)C(=O)N1Cc1ccccc1 (stereo not given in full) |  |  |  | > 100 |  | > 100 |  |  |  |  |  | > 100 |  | > 100 |  | > 100 |  | > 100 |  |
| COc1ccc(S(=O)(=O)N[C@H](C(=O)O)c2ccccc2)cc1 |  | > 100 µM |  | > 100 |  | > 100 |  |  |  |  |  | > 100 |  | > 100 |  | > 100 |  | > 100 |  |
| CCCCCCCCCCCCCCCCc1c(C(=O)OC)nc(NN)[nH]c1=O |  | > 50 µM |  | > 50 |  | > 50 |  | > 50 µM |  |  |  | > 50 |  | > 50 |  | > 50 |  | > 50 |  |
| Cc1nc(N)c(-c2ccccc2)s1 |  | > 100 µM |  | > 66.7 |  | > 100 |  | > 100 µM |  |  |  | > 100 |  | > 100 |  | > 100 |  | > 100 |  |
| COc1cccc2nc3ccccc3nc12 |  | > 100 µM |  | > 100 |  | > 100 |  |  |  | > 100 |  | > 100 |  | > 100 |  | > 100 |  | 72.3 | > 100 |
| CCN(CC)CC(=O)NC1c2ccccc2Oc2c(C)cccc21 (stereo not given) |  |  |  | > 100 |  | > 100 |  |  |  |  |  | > 100 |  | > 100 |  | > 100 |  | > 100 |  |
| COc1ccc(-c2ccccc2)c2[nH]c3c(c12)CCNC3=O |  | > 100 µM |  | > 100 |  | > 100 |  | > 100 µM |  |  |  | > 100 |  | > 100 |  | > 100 |  | > 100 |  |
| O=C(N/C(=C\c1ccccc1Cl)c1nc2ccccc2[nH]1)c1ccccc1 |  | > 100 µM |  | > 100 |  | > 100 |  | 72.5 µM |  |  |  | > 100 |  | 34.2 |  | > 100 |  | 44.8 |  |
| COC(=O)C1C(=O)O[C@@H](c2ccc(OC)c(OC)c2OC)C1C(=O)OC (mixture of isomers) |  | > 100 µM |  | > 100 |  | > 100 |  | > 100 µM |  |  |  | > 100 |  | > 100 |  | > 100 |  | > 100 |  |
| COC1=C(OC)C(=O)C(Sc2ccc3ccccc3c2)=CC1=O |  | 32.8 µM |  | 23.7 |  | 4.86 |  |  |  | 26.1 |  | > 57.7 |  | 13.9 |  | 32.4 |  | 16.3 | 35.8 |
| COc1ccc2c(c1)[n+](=O)c(C(=O)C/C(=N/NC(=O)C[N+](C)(C)C)C(=O)Nc1cccc(C)c1C)c(C)n2O |  | > 100 µM |  | > 100 |  |  |  | > 100 µM |  |  |  | > 100 |  |  |  | > 100 |  | > 100 |  |
| CC[C@]1(O)CC2CN(CCc3c([nH]c4ccccc34)[C@@](C(=O)OC)(c3cc4c(cc3OC)N(C=O)[C@H]3[C@@](O)(C(=O)OC)[C@H](OC(C)=O)[C@]5(CC)C=CCN6CC[C@]43[C@@H]65)C2)C1 (stereo not given in full) | 0.232 | > 50 µM | < 0.005 | < 0.005 | < 0.005 |  | < 0.005 | < 0.005 µM | 0.0059 | > 50 | < 0.005 | > 17.9 | < 0.005 | 0.059 | < 0.005 | > 50 | 0.519 | > 50 |  |
| N#C/C(=C\c1cc(O)ccc1O)C(N)=O |  | > 100 µM |  | > 100 |  | 60.1 |  | 41 µM |  |  |  | > 100 |  |  |  | > 100 |  | > 100 |  |
| Cc1cc(=O)n(-c2c(C)cccc2Cl)c(/C=C(\O)c2ccncc2)n1 |  | > 100 µM |  | > 100 |  | > 100 |  | > 100 µM |  |  |  | > 100 |  | > 100 |  | > 100 |  | > 100 |  |
| CC(=O)OC(C)(C)/C=C/C(=O)[C@](C)(O)[C@H]1[C@H](O)C[C@@]2(C)[C@@H]3CC=C4[C@@H](C=C(O)C(=O)C4(C)C)[C@]3(C)C(=O)C[C@]12C |  | 44 nM [middle of 4 runs] |  |  |  |  |  | 196 nM [middle of 4 runs] | 0.0408 | 1.48 |  |  |  |  |  |  |  |  | 1.46 |

From PubChem BioAssay (NCI)
